Laboratory results: patent US4303664A, “Novel penicillin derivatives containing a coumarin nucleus and medicines containing the same” (Teijin Limited, priority 1978, dated 1981)
Values after ≈ are worked out from the molar mass of the structure shown. Where two headings read alike, the source gives them in different places.

Assays:
Type in all cases: cell-based
[1] = test system: Staphylococcus aureus 209-p; assay: Bactericidal test (MIC), Staphylococcus aureus 209-p; conditions: (1) Staphylococcus aureus 209-p
Text: (§1) Results of bactericidal tests (MIC, r/ml) on the penicillin derivatives of this invention prepared in the above examples are shown in the following table.

[2] = test system: Staphylococcus aureus 1248; assay: Bactericidal test (MIC), Staphylococcus aureus 1248
Text: as §1

[3] = test system: Bacillus subtilis; assay: Bactericidal test (MIC), Bacillus subtilis; conditions: (3) Bacillus subtilis
Text: as §1

[4] = test system: Salmonella typhimurium G-20; assay: Bactericidal test (MIC), Salmonella typhimurium G-20; conditions: Salmonella enterica; (4) Salmonella typhimurium G-20
Text: as §1

[5] = test system: Escherichia Coli NIHJ JC-2; assay: Bactericidal test (MIC), Escherichia Coli NIHJ JC-2; conditions: NIHJJC2; (5) Escherichia Coli NIHJ JC-2
Text: as §1

[6] = test system: Klebsiella neumoniae ATCC10031; assay: Bactericidal test (MIC), Klebsiella neumoniae ATCC10031
Text: as §1

[7] = test system: Enterobactor cloacae 147; assay: Bactericidal test (MIC), Enterobactor cloacae 147; conditions: (7) Enterobactor cloacae 147
Text: as §1

[8] = test system: Enterobacter cloacae IF012937; assay: Bactericidal test (MIC), Enterobacter cloacae IF012937; conditions: (8) Enterobacter cloacae IF012937
Text: as §1

[9] = test system: Morganella var. G-2; assay: Bactericidal test (MIC), Morganella var. G-2; conditions: VAR.G2
Text: as §1

[10] = test system: Rettgerella var. Tid-21; assay: Bactericidal test (MIC), Rettgerella var. Tid-21
Text: as §1

[11] = test system: Serratia G-18; assay: Bactericidal test (MIC), Serratia G-18; conditions: G18
Text: as §1

[12] = test system: Pseudomonas aeruginosa IFO-3080; assay: Bactericidal test (MIC), Pseudomonas aeruginosa IFO-3080; conditions: IFO3080
Text: as §1

[13] = test system: Pseudomonas aeruginosa 0-37; assay: Bactericidal test (MIC), Pseudomonas aeruginosa 0-37; conditions: 037; (13) Pseudomonas aeruginosa 0-37
Text: as §1

[14] = test system: Pseudomonas aeruginosa Tid-53; assay: Bactericidal test (MIC), Pseudomonas aeruginosa Tid-53; conditions: TID53; (14) Pseudomonas aeruginosa Tid-53
Text: as §1

[15] = test system: Pseudomonas aeruginosa GN-315; assay: Bactericidal test (MIC), Pseudomonas aeruginosa GN-315; conditions: GN315; (15) Pseudomonas aeruginosa GN-315
Text: as §1

[16] = test system: Pseudomonas aeruginosa 130; assay: Bactericidal test (MIC), Pseudomonas aeruginosa 130; conditions: (16) Pseudomonas aeruginosa 130
Text: as §1

[17] = (2) Staphylococcus aureus 1248, read-out: MIC
[18] = (6) Klebsiella neumoniae ATCC10031, read-out: MIC
[19] = (9) Morganella var. G-2, read-out: MIC
[20] = (10) Rettgerella var. Tid-21, read-out: MIC
[21] = (11) Serratia G-18, read-out: MIC
[22] = (12) Pseudomonas aeruginosa IFO-3080, read-out: MIC

Row | SMILES | MIC [1] | MIC [2, 17] | MIC [3] | MIC [4] | MIC [5] | MIC [6, 18] | MIC [7] | MIC [8] | MIC [9, 19] | MIC [10, 20] | MIC [11, 21] | MIC [12, 22] | MIC [13] | MIC [14] | MIC [15] | MIC [16] | also measured
1 | CCOc1cccc2cc(C(=O)N[C@@H](C(=O)N[C@@H]3C(=O)N4[C@@H]3SC(C)(C)[C@@H]4C(=O)O)c3ccccc3)c(=O)oc12 [Example 19, D(-)-α-(8-Ethoxycoumarin-3-carbonamido)benzylpenicillin] | < 0.4 µg/mL | 3.13 µg/mL (≈ 5.53 µM) | < 0.4 µg/mL | < 0.4 µg/mL | < 0.4 µg/mL | < 0.4 µg/mL | 6.25 µg/mL (≈ 11.1 µM) | 6.25 µg/mL (≈ 11.1 µM) | 3.13 µg/mL (≈ 5.53 µM) | 3.13 µg/mL (≈ 5.53 µM) | 12.5 µg/mL (≈ 22.1 µM) | 1.56 µg/mL (≈ 2.76 µM) | 12.5 µg/mL (≈ 22.1 µM) | 3.13 µg/mL (≈ 5.53 µM) | 6.25 µg/mL (≈ 11.1 µM) | 1.56 µg/mL (≈ 2.76 µM) | –
2 | CC1(C)S[C@@H]2[C@H](NC(=O)[C@H](N)c3ccccc3)C(=O)N2[C@H]1C(=O)O [Ampicillin, ampicillin, reference compound] | < 0.8 µg/mL | < 0.8 µg/mL | < 0.8 µg/mL | < 0.8 µg/mL | < 0.8 µg/mL | – | 400 µg/mL (≈ 1140 µM) | – | – | – | 25 µg/mL (≈ 71.5 µM) | 200 µg/mL (≈ 572 µM) | > 400 µg/mL | > 400 µg/mL | > 400 µg/mL | > 400 µg/mL | MIC ([6]; Klebsiella, ATCC10031): 12.5 µg/mL (≈ 35.8 µM); MIC ([9]; Morganella): 12.5 µg/mL (≈ 35.8 µM); MIC [10]: 6.25 µg/mL (≈ 17.9 µM)
3 | COc1cc(OC)c2cc(C(=O)N[C@@H](C(=O)N[C@@H]3C(=O)N4[C@@H]3SC(C)(C)[C@@H]4C(=O)O)c3ccccc3)c(=O)oc2c1 [Example 22, D-α-(5,7-Dimethoxycoumarin-3-carbonamido)benzylpenicillin] | < 0.4 µg/mL | 3.13 µg/mL (≈ 5.38 µM) | – | – | < 0.4 µg/mL | 1.56 µg/mL (≈ 2.68 µM) | 12.5 µg/mL (≈ 21.5 µM) | 50 µg/mL (≈ 86 µM) | 50 µg/mL (≈ 86 µM) | 25 µg/mL (≈ 43 µM) | 100 µg/mL (≈ 172 µM) | 1.56 µg/mL (≈ 2.68 µM) | 50 µg/mL (≈ 86 µM) | 6.25 µg/mL (≈ 10.7 µM) | 6.25 µg/mL (≈ 10.7 µM) | 3.13 µg/mL (≈ 5.38 µM) | –
4 | CC(=O)Oc1cccc2cc(C(=O)N[C@@H](C(=O)N[C@@H]3C(=O)N4[C@@H]3SC(C)(C)[C@@H]4C(=O)O)c3ccccc3)c(=O)oc12 [Example 21, D-α-(8-Acetoxycoumarin-3-carbonamido)benzylpenicillin] | < 0.4 µg/mL | 3.13 µg/mL (≈ 5.4 µM) | – | – | < 0.4 µg/mL | 0.8 µg/mL (≈ 1.38 µM) | – | 6.25 µg/mL (≈ 10.8 µM) | 1.56 µg/mL (≈ 2.69 µM) | 1.56 µg/mL (≈ 2.69 µM) | 12.5 µg/mL (≈ 21.6 µM) | < 0.4 µg/mL | 50 µg/mL (≈ 86.3 µM) | 12.5 µg/mL (≈ 21.6 µM) | 3.13 µg/mL (≈ 5.4 µM) | 0.8 µg/mL (≈ 1.38 µM) | –
5 | CC1(C)S[C@@H]2[C@H](NC(=O)[C@H](NC(=O)c3cc4cc(Br)cc(Br)c4oc3=O)c3ccccc3)C(=O)N2[C@H]1C(=O)O [Example 4, D(-)-α-(6,8-Dibromocoumarin-3-carbonamido)benzylpenicillin] | 1.56 µg/mL (≈ 2.3 µM) | 50 µg/mL (≈ 73.6 µM) | 1.56 µg/mL (≈ 2.3 µM) | 3.13 µg/mL (≈ 4.61 µM) | < 0.4 µg/mL | 3.13 µg/mL (≈ 4.61 µM) | 50 µg/mL (≈ 73.6 µM) | 200 µg/mL (≈ 294 µM) | 25 µg/mL (≈ 36.8 µM) | 100 µg/mL (≈ 147 µM) | 100 µg/mL (≈ 147 µM) | 50 µg/mL (≈ 73.6 µM) | 200 µg/mL (≈ 294 µM) | 200 µg/mL (≈ 294 µM) | 200 µg/mL (≈ 294 µM) | 50 µg/mL (≈ 73.6 µM) | –
6 | Cc1cccc2cc(C(=O)N[C@@H](C(=O)N[C@@H]3C(=O)N4[C@@H]3SC(C)(C)[C@@H]4C(=O)O)c3ccccc3)c(=O)oc12 [Example 15, D(-)-α-(8-Methylcoumarin-3-carbonamido)benzylpenicillin] | < 0.4 µg/mL | 6.25 µg/mL (≈ 11.7 µM) | < 0.4 µg/mL | < 0.4 µg/mL | < 0.4 µg/mL | 6.25 µg/mL (≈ 11.7 µM) | 200 µg/mL (≈ 373 µM) | 100 µg/mL (≈ 187 µM) | 100 µg/mL (≈ 187 µM) | 50 µg/mL (≈ 93.4 µM) | 200 µg/mL (≈ 373 µM) | 12.5 µg/mL (≈ 23.3 µM) | 200 µg/mL (≈ 373 µM) | 100 µg/mL (≈ 187 µM) | 200 µg/mL (≈ 373 µM) | 25 µg/mL (≈ 46.7 µM) | –
7 | COC(=O)c1cccc2cc(C(=O)N[C@@H](C(=O)N[C@@H]3C(=O)N4[C@@H]3SC(C)(C)[C@@H]4C(=O)O)c3ccccc3)c(=O)oc12 [Example 14, D(-)-α-(8-Methoxycarbonylcoumarin-3-carbonamido)benzylpenicillin] | < 0.4 µg/mL | 3.13 µg/mL (≈ 5.4 µM) | < 0.4 µg/mL | < 0.4 µg/mL | < 0.4 µg/mL | 1.56 µg/mL (≈ 2.69 µM) | 25 µg/mL (≈ 43.1 µM) | 6.25 µg/mL (≈ 10.8 µM) | 1.56 µg/mL (≈ 2.69 µM) | 12.5 µg/mL (≈ 21.6 µM) | 12.5 µg/mL (≈ 21.6 µM) | 3.13 µg/mL (≈ 5.4 µM) | 100 µg/mL (≈ 173 µM) | 25 µg/mL (≈ 43.1 µM) | 12.5 µg/mL (≈ 21.6 µM) | 3.13 µg/mL (≈ 5.4 µM) | –
8 | CCOc1ccc2oc(=O)c(C(=O)N[C@@H](C(=O)N[C@@H]3C(=O)N4[C@@H]3SC(C)(C)[C@@H]4C(=O)O)c3ccccc3)cc2c1 [Example 23, D-α-(6-Ethoxycoumarin-3-carbonamido)benzylpenicillin] | < 0.4 µg/mL | – | – | – | < 0.4 µg/mL | 6.25 µg/mL (≈ 11.1 µM) | 1.56 µg/mL (≈ 2.76 µM) | 6.25 µg/mL (≈ 11.1 µM) | 3.13 µg/mL (≈ 5.53 µM) | 3.13 µg/mL (≈ 5.53 µM) | 25 µg/mL (≈ 44.2 µM) | 0.8 µg/mL (≈ 1.41 µM) | 12.5 µg/mL (≈ 22.1 µM) | 3.13 µg/mL (≈ 5.53 µM) | 3.13 µg/mL (≈ 5.53 µM) | 1.56 µg/mL (≈ 2.76 µM) | –
9 | CC1(C)S[C@@H]2[C@H](NC(=O)[C@H](NC(=O)c3cc4cccc(O)c4oc3=O)c3ccccc3)C(=O)N2[C@H]1C(=O)O [Example 26, D(-)-α-(8-Hydroxycoumarin-3-carbonamido)benzylpenicillin] | < 0.4 µg/mL | – | < 0.4 µg/mL | – | < 0.4 µg/mL | – | 3.13 µg/mL (≈ 5.82 µM) | 12.5 µg/mL (≈ 23.3 µM) | 1.56 µg/mL (≈ 2.9 µM) | 1.56 µg/mL (≈ 2.9 µM) | 12.5 µg/mL (≈ 23.3 µM) | < 0.4 µg/mL | 50 µg/mL (≈ 93 µM) | 6.25 µg/mL (≈ 11.6 µM) | 1.56 µg/mL (≈ 2.9 µM) | 1.56 µg/mL (≈ 2.9 µM) | –
10 | COc1cccc2oc(=O)c(C(=O)N[C@@H](C(=O)N[C@@H]3C(=O)N4[C@@H]3SC(C)(C)[C@@H]4C(=O)O)c3ccccc3)cc12 [Example 24, D-α-(5-Methoxycoumarin-3-carbonamido)benzylpenicillin] | < 0.4 µg/mL | – | – | – | < 0.4 µg/mL | – | 1.56 µg/mL (≈ 2.83 µM) | 6.25 µg/mL (≈ 11.3 µM) | 3.13 µg/mL (≈ 5.67 µM) | 3.13 µg/mL (≈ 5.67 µM) | 25 µg/mL (≈ 45.3 µM) | 0.8 µg/mL (≈ 1.45 µM) | 12.5 µg/mL (≈ 22.7 µM) | 3.13 µg/mL (≈ 5.67 µM) | 3.13 µg/mL (≈ 5.67 µM) | 1.56 µg/mL (≈ 2.83 µM) | –
11 | CC1(C)S[C@@H]2[C@H](NC(=O)C(C(=O)O)c3ccccc3)C(=O)N2[C@H]1C(=O)O (stereo partly drawn) [Carbenicillin, carbenicillin, reference compound] | < 0.8 µg/mL | – | < 0.8 µg/mL | < 0.8 µg/mL | < 0.8 µg/mL | 50 µg/mL (≈ 132 µM) | 200 µg/mL (≈ 529 µM) | – | 1.56 µg/mL (≈ 4.12 µM) | 25 µg/mL (≈ 66.1 µM) | – | – | > 400 µg/mL | 200 µg/mL (≈ 529 µM) | 100 µg/mL (≈ 264 µM) | 25 µg/mL (≈ 66.1 µM) | MIC ([2]; Staphylococcus aureus, 1248): 3.13 µg/mL (≈ 8.27 µM); MIC ([11]; Serratia): 6.25 µg/mL (≈ 16.5 µM); MIC ([12]; Pseudomonas aeruginosa): 12.5 µg/mL (≈ 33 µM)
